Assay: Lipophilicity, log P of the compound
Format: physicochemical
Settings: octanol/water

Row | Compound | logP (read-out: logP) | logP
1 | CC(Cl)/C=C/C(=O)N(Cc1ccc(Cl)cc1)CC(C)C (configuration not stated) | 4.68 | 
2 | CC(C)Oc1cc(-n2nc(C(C)(C)C)oc2=O)c(Cl)cc1Cl [OXADIAZON] |  | 4.78

Reference: ChEMBL document CHEMBL3046150, “Quantitative Structure-Activity Relationships of Herbicidal N-Alkyl-N-(4-substituted benzyl)-4-chloro-2-pentenamides against Echinochloa oryzicola” (J Pestic Sci, 1999)
